From patent US10654816B2, “Compounds and compositions for treating conditions associated with NLRP activity” (NOVARTIS INFLAMMASOME RESEARCH, INC., priority 2017, dated 2020)
Like-named read-outs stand apart in the source and are kept apart here.

Tested on: IL-1β production in PMA-differentiated THP-1 cells
Assay: IL-1β production in PMA-differentiated THP-1 cells stimulated with gramicidin (hTHP-1 assay, HTRF readout; Procedures 1-3)
Type: cell-based, human
Conditions: average, read-out: hTHP-1 IC50 (Average IC50 of compounds in hTHP-1 assay)
Procedure, shortened: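 PMA-differentiated (20 ng/ml, 16-18 h) THP-1 cells in RPMI with 2% FBS, 50,000 cells/well, preincubated 1 h with compound (final 0.0017-100 μM, 0.37% DMSO), then stimulated with 5 μM gramicidin for 2 h. IL-1β in cell-free supernatant measured by HTRF (620/668 nm).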

[1] = Homo sapiens, THP-1, hTHP-1 assay containing 2% fetal bovine serum, class symbols
[2] = Homo sapiens, THP-1, hTHP-1 assay containing 2% fetal bovine serum, given as bound

Row | IC50 [1] | SMILES | other results
2 | 5 to 30 µM | CC(C)c1cc(F)cc(C(C)C)c1NC(=O)N=S(N)(=O)c1cc(Cl)c(Cl)s1 (stereo not drawn) [Example 208, 4,5-Dichloro-N′-((4-fluoro-2,6-diisopropylphenyl)carbamoyl)thiophene-2-sulfonimidamide] | 
3 |  | Cc1nn(C)cc1S(N)(=O)=NC(=O)Nc1c(C(C)C)cc(F)cc1C(C)C (stereo not drawn) [Example 209, N′-((4-fluoro-2,6-diisopropylphenyl)carbamoyl)-1,3-dimethyl-1H-pyrazole-4-sulfonimidamide] | IC50 [2]: > 30 µM
4 |  | CC(C)c1cc(F)cc(C(C)C)c1NC(=O)N=S(N)(=O)c1ccc2ccccc2c1 (stereo not drawn) [Example 210, N′-((4-fluoro-2,6-diisopropylphenyl)carbamoyl)naphthalene-2-sulfonimidamide] | IC50 [2]: > 30 µM
5 | 5 to 30 µM | CC(C)c1cc(F)cc(C(C)C)c1NC(=O)N=S(N)(=O)c1ccc2c(c1)CCO2 (stereo not drawn) [Example 211, N′-((4-fluoro-2,6-diisopropylphenyl)carbamoyl)-2,3-dihydrobenzofuran-5-sulfonimidamide] | 
6 |  | CC(C)c1cc(F)cc(C(C)C)c1NC(=O)N=S(N)(=O)c1ccccc1-c1ccccc1 (stereo not drawn) [Example 212, N′-((4-fluoro-2,6-diisopropylphenyl)carbamoyl)-[1,1′-biphenyl]-2-sulfonimidamide] | IC50 [2]: > 30 µM
7 |  | COCc1ccccc1S(N)(=O)=NC(=O)Nc1c(C(C)C)cc(F)cc1C(C)C (stereo not drawn) [Example 213, N′-((4-fluoro-2,6-diisopropylphenyl)carbamoyl)-2-(methoxymethyl)benzene-sulfonimidamide] | IC50 [2]: > 30 µM
8 |  | CC(C)c1cc(F)cc(C(C)C)c1NC(=O)N=S(N)(=O)c1cc(Cl)sc1Cl (stereo not drawn) [Example 214, 2,5-dichloro-N′-((4-fluoro-2,6-diisopropylphenyl)carbamoyl)thio-phene-3-sulfonimidamide] | IC50 [2]: > 30 µM
9 | 5 to 30 µM | CC(C)c1cc(F)cc(C(C)C)c1NC(=O)N=S(N)(=O)c1cccnc1 (stereo not drawn) [Example 215, N′-((4-fluoro-2,6-diisopropylphenyl)carbamoyl)pyridine-3-sulfonimidamide] | 
10 |  | CC(C)c1cc(F)cc(C(C)C)c1NC(=O)N=S(N)(=O)c1ccc2c(c1)OCO2 (stereo not drawn) [Example 216, N′-((4-fluoro-2,6-diisopropyl-phenyl)carbamoyl)benzo[d][1,3]dioxole-5-sulfonimidamide] | IC50 [2]: > 30 µM
11 | 5 to 30 µM | Cc1cc(S(N)(=O)=NC(=O)Nc2c(C(C)C)cc(F)cc2C(C)C)c(C)o1 (stereo not drawn) [Example 217, N′-((4-fluoro-2,6-diisopropylphenyl)carbamoyl)-2,5-dimethylfuran-3-sulfonimidamide] | 
12 | 1 to 5 µM | CC(C)c1cc(F)cc(C(C)C)c1NC(=O)N=S(N)(=O)c1cnc2ccccc2c1 (stereo not drawn) [Example 218, N′-((4-fluoro-2,6-diisopropyl-phenyl)carbamoyl)quinoline-3-sulfonimidamide] | 
13 |  | CC(C)c1cc(F)cc(C(C)C)c1NC(=O)N=S(N)(=O)c1cnc2n1CCC2 (stereo not drawn) [Example 219, N′-((4-fluoro-2,6-diisopropylphenyl)carbamoyl)-6,7-dihydro-5H-pyrrolo[1,2-a]imidazole-3-sulfonimidamide] | IC50 [2]: > 30 µM
14 | 5 to 30 µM | Cc1ccc(S(N)(=O)=NC(=O)Nc2c(C(C)C)cc(F)cc2C(C)C)nc1 (stereo not drawn) [Example 220, N′-((4-fluoro-2,6-diisopropylphenyl)carbamoyl)-5-methylpyridine-2-sulfonimidamide] | 
15 | 0.04 to 0.2 µM | Cc1oc(S(N)(=O)=NC(=O)Nc2c3c(nc4c2CCC4)CCC3)cc1C(C)(C)O (stereo not drawn) [Example 221, N′-((1,2,3,5,6,7-hexahydrodicyclopenta[b,e]pyridin-8-yl)carbamoyl)-4-(2-hydroxypropan-2-yl)-5-methylfuran-2-sulfonimidamide] | 
16 | 0.2 to 1 µM | Cc1oc(S(N)(=O)=NC(=O)Nc2c(C(C)C)cncc2C(C)C)cc1C(C)(C)O (stereo not drawn) [Example 222, N′-((3,5-diisopropylpyridin-4-yl)carbamoyl)-4-(2-hydroxypropan-2-yl)-5-methylfuran-2-sulfonimidamide] | 
17 | 0.008 to 0.04 µM | CC(C)(O)c1ncc(S(N)(=O)=NC(=O)Nc2c3c(cc4c2CC4)CC3)s1 (stereo not drawn) [Example 226, 2-(2-Hydroxypropan-2-yl)-N′-(tricyclo[6.2.0.03,6]deca-1,3(6),7-trien-2-ylcarbamoyl)thiazole-5-sulfonimidamide] | 
18 | 1 to 5 µM | NS(=O)(=NC(=O)Nc1c2c(c(F)c3c1CCC3)CCC2)c1ccc(O)cc1F (stereo not drawn) [Example 229, 2-Fluoro-N′-(8-fluoro-1,2,3,5,6,7-hexahydro-s-indacen-4-ylcarbamoyl)-4-hydroxybenzenesulfonimidamide] | 
19 | 1 to 5 µM | CC(C)(O)c1ncc(S(N)(=O)=NC(=O)Nc2c3c(cc4c2CCC4O)CCC3)s1 (stereo not drawn) [Example 230] | 
20 | 1 to 5 µM | COC1CN(Cc2ccc(S(N)(=O)=NC(=O)Nc3c4c(cc5c3CCC5)CCC4)cc2)C1 (stereo not drawn) [Example 231] | 

Row | IC50 [1] | SMILES | other results
21 | 1 to 5 µM | COCCN(C)Cc1ccc(S(N)(=O)=NC(=O)Nc2c3c(cc4c2CCC4)CCC3)cc1 (stereo not drawn) [Example 232, N′-(1,2,3,5,6,7-hexahydro-s-indacen-4-ylcarbamoyl)-4-(((2-methoxyethyl)(methyl)amino)meth-yl)benzenesulfonimidamide] | 
22 | 1 to 5 µM | NS(=O)(=NC(=O)Nc1c2c(cc3c1CCC3)CCC2)c1ccc(CO)cc1 (stereo not drawn) [Example 233, 1-[amino[4-(hydroxymethyl)phenyl]oxo-λ^6-sulfanylidene]-3-(1,2,3,5,6,7-hexahydro-s-indacen-4-yl)urea] | 
23 | 1 to 5 µM | NS(=O)(=NC(=O)Nc1c2c(cc3c1CCC3)CCC2)c1ccc(CN2CCOCC2)cc1 (stereo not drawn) [Example 234, N′-(1,2,3,5,6,7-hexahydro-s-indacen-4-ylcarbamoyl)-4-(morpholino-methyl)benzenesulfonimidamide] | 
24 | 1 to 5 µM | NS(=O)(=NC(=O)Nc1c2c(cc3c1CCC3)CCC2)c1ccc(CN2CCC(F)(F)C2)cc1 (stereo not drawn) [Example 235, 4-((3,3-Difluoropyrrolidin-1-yl)methyl)-N′-(1,2,3,5,6,7-hexahydro-s-indacen-4-ylcarbamoyl)benzenesulfonimidamide] | 
25 | 1 to 5 µM | NS(=O)(=NC(=O)Nc1c2c(cc3c1CCC3)CCC2)c1ccc(CN2CCCC2)cc1 (stereo not drawn) [Example 236, N′-(1,2,3,5,6,7-hexahydro-s-indacen-4-ylcarbamoyl)-4-(pyrrolidin-1-ylmethyl)benzenesulfonimidamide] | 
26 | 1 to 5 µM | NS(=O)(=NC(=O)Nc1c2c(cc3c1CCC3)CCC2)c1ccc(CN2CCC2)cc1 (stereo not drawn) [Example 237, 4-(Azetidin-1-ylmethyl)-N′-(1,2,3,5,6,7-hexahydro-s-indacen-4-ylcarbamoyl)benzenesulfonimidamide] | 
27 | 1 to 5 µM | C=CCN(C)Cc1ccc(S(N)(=O)=NC(=O)Nc2c3c(cc4c2CCC4)CCC3)cc1 (stereo not drawn) [Example 238, 4-((Allyl(methyl)amino)methyl)-N′-(1,2,3,5,6,7-hexahydro-s-indacen-4-ylcarbamoyl)benzenesulfonimidamide] | 
28 | 1 to 5 µM | C#CCN(C)Cc1ccc(S(N)(=O)=NC(=O)Nc2c3c(cc4c2CCC4)CCC3)cc1 (stereo not drawn) [Example 239, N′-(1,2,3,5,6,7-hexahydro-s-indacen-4-ylcarbamoyl)-4-((methyl(prop-2-ynyl)amino)methyl)benzene-sulfonimidamide] | 
29 | 1 to 5 µM | CN(Cc1ccc(S(N)(=O)=NC(=O)Nc2c3c(cc4c2CCC4)CCC3)cc1)CC1CC1 (stereo not drawn) [Example 240, 4-(((Cyclopropyl-methyl)(methyl)amino)methyl)-N′-(1,2,3,5,6,7-hexahydro-s-indacen-4-ylcarbamoyl)benzenesulfonimidamide] | 
30 | 1 to 5 µM | CN(Cc1ccc(S(N)(=O)=NC(=O)Nc2c3c(cc4c2CCC4)CCC3)cc1)CC(F)F (stereo not drawn) [Example 241, 4-(((2,2-Difluoroethyl)(methyl)amino)methyl)-N′-(1,2,3,5,6,7-hexahydro-s-indacen-4-ylcarbamoyl)benzenesulfonimidamide] | 
31 | 1 to 5 µM | COCc1ccc(S(N)(=O)=NC(=O)Nc2c3c(cc4c2CCC4)CCC3)cc1 (stereo not drawn) [Example 242, N′-(1,2,3,5,6,7-hexahydro-s-indacen-4-ylcarbamoyl)-4-(methoxymethyl)benzenesulfonimidamide] | 
32 | 1 to 5 µM | NCc1ccc(S(N)(=O)=NC(=O)Nc2c3c(cc4c2CCC4)CCC3)cc1 (stereo not drawn) [Example 243, 4-(Aminomethyl)-N′-(1,2,3,5,6,7-hexahydro-s-indacen-4-ylcarbamoyl)benzenesulfonimidamide] | 
33 | 5 to 30 µM | NS(=O)(=NC(=O)Nc1c2c(cc3c1CCC3)CCC2)c1ccc(CN2CCCC2=O)cc1 (stereo not drawn) [Example 244] | 
34 | 5 to 30 µM | CN(C)S(=O)(=NC(=O)Nc1c2c(cc3c1CCC3)CCC2)c1cc(C(C)(C)O)cs1 (stereo not drawn) [Example 245] | 
35 | 5 to 30 µM | CNS(=O)(=NC(=O)Nc1c2c(cc3c1CCC3)CCC2)c1cc(C(C)(C)O)cs1 (stereo not drawn) [Example 246] | 
36 |  | CN(C(=O)N=S(N)(=O)c1cnc(C(C)(C)O)s1)c1c2c(cc3c1CCC3)CCC2 (stereo not drawn) [Example 248, N′-((1,2,3,5,6,7-hexahydro-s-indacen-4-yl)(methyl)carbamoyl)-2-(2-hydroxypropan-2-yl) thiazole-5-sulfonimidamide] | IC50 (hTHP-1 assay containing 2% fetal bovine serum, class symbols): 5 to 30 µM
37 | 5 to 30 µM | CC(=O)NS(=O)(=NC(=O)Nc1c2c(cc3c1CCC3)CCC2)c1cnc(C(C)(C)O)s1 (stereo not drawn) [Example 250] | 
38 | 1 to 5 µM | COC(=O)CCC(=O)N(C)Cc1ccc(S(N)(=O)=NC(=O)Nc2c3c(cc4c2CCC4)CCC3)cc1 (stereo not drawn) [Example 251] | 
39 |  | CN(Cc1ccc(S(N)(=O)=NC(=O)Nc2c3c(cc4c2CCC4)CCC3)cc1)C(=O)CCC(=O)O (stereo not drawn) [Example 252] | IC50 [2]: > 30 µM
